Data: ChEMBL document CHEMBL6092162, “Identification of novel and potent triazoles targeting CYP51 for antifungal: Design, synthesis, and biological study” (Eur J Med Chem, 2024)
In brackets after ≈: the same amount, converted by molar mass. Activity calls are given as the source filed them. The rule behind the calls is not given here.

Tests used:
[1] = system: Nakaseomyces glabratus; assay: Antifungal activity against Candida glabrata assessed as inhibition of fungal growth by CLSI M27-A3 guidelines based method; assay type: functional
[2] = system: Candida albicans; assay: Antifungal activity against fluconazole-resistant Candida albicans clinical isolate 632 assessed as inhibition of fungal growth by CLSI M27-A3 guidelines based method; assay type: functional
[3] = system: Candida albicans; assay: Antifungal activity against fluconazole and iodiconazole resistant Candida albicans clinical isolate 17# assessed as inhibition of fungal growth by CLSI M27-A3 guidelines based method; assay type: functional
[4] = Cytotoxicity against human NCI-H460 cells assessed as inhibition of cell growth incubated for 72 hrs by MTT assay; assay type: toxicity, cell-based
[5] = system: Candida albicans; assay: Antifungal activity against fluconazole-resistant Candida albicans clinical isolate 904 assessed as inhibition of fungal growth by CLSI M27-A3 guidelines based method; assay type: functional
[6] = Cytotoxicity against HEK293T cells assessed as inhibition of cell growth incubated for 72 hrs by MTT assay; assay type: toxicity, cell-based, HEK-293T; details: human
[7] = system: Pichia kudriavzevii; assay: Antifungal activity against Candida krusei GIM 2.1 assessed as inhibition of fungal growth by CLSI M27-A3 guidelines based method; assay type: functional
[8] = system: Candida tropicalis; assay: Antifungal activity against Candida tropicalis GIM 2.183 assessed as inhibition of fungal growth by CLSI M27-A3 guidelines based method; assay type: functional
[9] = Cytotoxicity against human OVCAR-3 cells assessed as inhibition of cell growth incubated for 72 hrs by MTT assay; assay type: toxicity, cell-based
[10] = system: Candida albicans; assay: Fungicidal activity against Candida albicans SC5314 incubated for 48 hrs by SDA plate based method; assay type: functional
[11] = system: Candida albicans; assay: Antifungal activity against Candida albicans SC5314 assessed as inhibition of fungal growth by CLSI M27-A3 guidelines based method; assay type: functional
[12] = system: Candida albicans; assay: Antifungal activity against fluconazole-resistant Candida albicans clinical isolate 103 assessed as inhibition of fungal growth by CLSI M27-A3 guidelines based method; assay type: functional
[13] = system: Candida albicans; assay: Fungicidal activity against fluconazole and iodiconazole resistant Candida albicans clinical isolate 17# incubated for 48 hrs by SDA plate based method; assay type: functional
[14] = system: Candida albicans; assay: Selectivity ratio of MFC for fungicidal activity against Candida albicans SC5314 to MIC80 for antifungal activity against Candida albicans SC5314; assay type: functional
[15] = system: Candida albicans; assay: Antibiofilm activity against Candida albicans CPCC400616 assessed as inhibition of morphological transformation by measuring disappearance of mycelium at 2 microg/ml incubated for 4 hrs by microscopic photograph analysis; assay type: functional, organism-based; details: dose 2.0 µg/ml
[16] = system: Candida albicans; assay: Antifungal activity against Candida albicans GIM 2.194 assessed as inhibition of fungal growth by CLSI M27-A3 guidelines based method; assay type: functional
[17] = system: Candida albicans; assay: Antifungal activity against fluconazole-resistant Candida albicans clinical isolate 901 assessed as inhibition of fungal growth by CLSI M27-A3 guidelines based method; assay type: functional
[18] = system: Candida parapsilosis; assay: Antifungal activity against Candida parapsilosis GIM 2.190 assessed as inhibition of fungal growth by CLSI M27-A3 guidelines based method; assay type: functional; details: Lodderomyces parapsilosis
[19] = system: Candida albicans; assay: Antibiofilm activity against fluconazole-resistant Candida albicans CPCC400616 assessed as inhibition of metabolic activity of biofilm measured after 48 hrs by XTT reduction assay; assay type: functional
[20] = Cytotoxicity against HUVEC cells assessed as inhibition of cell growth incubated for 72 hrs by MTT assay; assay type: toxicity, cell-based; details: human
[21] = system: Candida albicans; assay: Antifungal activity against fluconazole-resistant Candida albicans clinical isolate 311 assessed as inhibition of fungal growth by CLSI M27-A3 guidelines based method; assay type: functional
[22] = system: Cryptococcus neoformans; assay: Antifungal activity against Cryptococcus neoformans CGMCC 2.3161 assessed as inhibition of fungal growth by CLSI M27-A3 guidelines based method; assay type: functional
[23] = system: Candida albicans; assay: Antifungal activity against fluconazole-resistant Candida albicans CaR assessed as inhibition of fungal growth by CLSI M27-A3 guidelines based method; assay type: functional
[24] = system: Candida albicans; assay: Antibiofilm activity against fluconazole-resistant Candida albicans CPCC400616 assessed as inhibition of metabolic activity of biofilm measured after 24 hrs by XTT reduction assay; assay type: functional
[25] = system: Candida albicans; assay: Antifungal activity against fluconazole-resistant Candida albicans clinical isolate 100 assessed as inhibition of fungal growth by CLSI M27-A3 guidelines based method; assay type: functional
[26] = system: Candida albicans; assay: Antibiofilm activity against fluconazole-resistant Candida albicans CPCC400616 assessed as inhibition of metabolic activity of biofilm measured after 6 hrs by XTT reduction assay; assay type: functional
[27] = system: Candida albicans; assay: Selectivity ratio of MFC for fungicidal activity against fluconazole and iodiconazole resistant Candida albicans clinical isolate 17# to MIC80 for antifungal activity against fluconazole and iodiconazole resistant Candida albicans clinical isolate 17#; assay type: functional

CN(Cc1ccc(I)cc1)CC(O)(Cn1cncn1)c1ccc(F)cc1F (configuration not stated)
MIC80 [1]: 0.2 µg/mL (≈ 0.413 µM)
MIC80 [2]: 16 µg/mL (≈ 33 µM)
MIC80 [3]: 0.25 µg/mL (≈ 0.516 µM)
IC50 at 72 h [4]: > 10 µM
MIC80 [5]: 8 µg/mL (≈ 16.5 µM)
IC50 at 72 h [6]: > 10 µM
MIC80 [7]: 0.2 µg/mL (≈ 0.413 µM)
MIC80 [8]: 0.013 µg/mL (≈ 0.0268 µM)
IC50 at 72 h [9]: > 10 µM
MFC [10]: 32 µg/mL (≈ 66.1 µM)
MIC80 [11]: 0.013 µg/mL (≈ 0.0268 µM)
MIC80 [12]: 32 µg/mL (≈ 66.1 µM)
MFC [13]: 32 µg/mL (≈ 66.1 µM)
Selectivity ratio [14]: >256
Activity [15]: Active
MIC80 [16]: 0.025 µg/mL (≈ 0.0516 µM)
MIC80 [17]: > 64 µg/mL
MIC80 [18]: 0.025 µg/mL (≈ 0.0516 µM)
MIC50 [19]: > 32 µg/mL
IC50 at 72 h [20]: > 10 µM
MIC80 [21]: > 64 µg/mL
MIC80 [22]: 0.1 µg/mL (≈ 0.206 µM)
MIC80 [23]: 2 µg/mL (≈ 4.13 µM)
MIC50 [24]: 16 µg/mL (≈ 33 µM)
MIC80 [25]: 2 µg/mL (≈ 4.13 µM)
MIC50 [26]: 8 µg/mL (≈ 16.5 µM)
Selectivity ratio [27]: 128
